Experimental data as given in patent US11021467B2, “Phosphatidylinositol 3-kinase inhibitors” (Gilead Sciences, Inc., priority 2014, dated 2021).

What was measured:
Assay in all cases: TR-FRET enzymatic activity assay against PI3K isoforms
Type in all cases: biochemical
PI3Kδ = PI3Kδ (Homo sapiens (Human), UniProt O00329); settings: 2×Km ATP, 30 minutes at 25° C.
Description: (§1) The compounds of formula (I) were characterized for their enzymatic activity against the PI3K isoforms. […] TR-FRET monitored the formation of 3,4,5-inositol triphosphate molecule that competed with fluorescently labeled PIP3 for binding to the GRP-1 pleckstrin homology domain protein.

PI3Kγ = PI3Kγ (Homo sapiens (Human), UniProt P48736); settings: 2×Km ATP, 30 minutes at 25° C.
PI3Kγ, sequence (P48736 whole entry): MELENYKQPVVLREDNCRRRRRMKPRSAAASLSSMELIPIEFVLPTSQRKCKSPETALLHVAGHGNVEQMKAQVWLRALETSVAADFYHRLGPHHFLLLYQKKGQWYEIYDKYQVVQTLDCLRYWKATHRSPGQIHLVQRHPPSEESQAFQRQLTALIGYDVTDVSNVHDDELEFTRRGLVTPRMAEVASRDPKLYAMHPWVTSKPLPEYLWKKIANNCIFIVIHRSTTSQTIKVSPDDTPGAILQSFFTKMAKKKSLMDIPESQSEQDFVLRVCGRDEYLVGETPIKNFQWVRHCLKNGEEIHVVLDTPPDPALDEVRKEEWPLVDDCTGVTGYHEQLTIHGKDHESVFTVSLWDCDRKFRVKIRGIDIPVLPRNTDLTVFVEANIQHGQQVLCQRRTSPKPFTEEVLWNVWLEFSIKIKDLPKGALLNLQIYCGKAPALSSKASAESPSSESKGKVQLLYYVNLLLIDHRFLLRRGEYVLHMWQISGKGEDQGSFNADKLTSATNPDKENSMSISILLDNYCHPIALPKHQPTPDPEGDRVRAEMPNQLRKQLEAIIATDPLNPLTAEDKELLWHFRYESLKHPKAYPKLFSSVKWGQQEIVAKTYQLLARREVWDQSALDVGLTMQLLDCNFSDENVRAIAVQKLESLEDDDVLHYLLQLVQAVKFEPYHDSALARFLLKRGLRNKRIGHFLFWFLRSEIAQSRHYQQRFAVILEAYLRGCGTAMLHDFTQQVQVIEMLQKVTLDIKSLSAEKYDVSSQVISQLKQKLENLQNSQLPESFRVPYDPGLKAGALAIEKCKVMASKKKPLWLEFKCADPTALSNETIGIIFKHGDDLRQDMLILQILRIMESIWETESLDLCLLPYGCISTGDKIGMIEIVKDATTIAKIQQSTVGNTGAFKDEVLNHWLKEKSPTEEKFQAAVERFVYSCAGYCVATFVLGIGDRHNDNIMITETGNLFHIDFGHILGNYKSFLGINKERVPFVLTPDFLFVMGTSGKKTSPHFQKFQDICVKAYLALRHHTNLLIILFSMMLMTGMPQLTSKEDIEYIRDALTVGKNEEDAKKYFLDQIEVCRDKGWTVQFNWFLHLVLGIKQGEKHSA
Description: as §1

PI3Kβ = PI3Kβ (Homo sapiens (Human), UniProt P42338); settings: PI3Kβ, TR-FRET, 2×Km ATP, 30 minutes at 25° C.
PI3Kβ, sequence (P42338 whole entry): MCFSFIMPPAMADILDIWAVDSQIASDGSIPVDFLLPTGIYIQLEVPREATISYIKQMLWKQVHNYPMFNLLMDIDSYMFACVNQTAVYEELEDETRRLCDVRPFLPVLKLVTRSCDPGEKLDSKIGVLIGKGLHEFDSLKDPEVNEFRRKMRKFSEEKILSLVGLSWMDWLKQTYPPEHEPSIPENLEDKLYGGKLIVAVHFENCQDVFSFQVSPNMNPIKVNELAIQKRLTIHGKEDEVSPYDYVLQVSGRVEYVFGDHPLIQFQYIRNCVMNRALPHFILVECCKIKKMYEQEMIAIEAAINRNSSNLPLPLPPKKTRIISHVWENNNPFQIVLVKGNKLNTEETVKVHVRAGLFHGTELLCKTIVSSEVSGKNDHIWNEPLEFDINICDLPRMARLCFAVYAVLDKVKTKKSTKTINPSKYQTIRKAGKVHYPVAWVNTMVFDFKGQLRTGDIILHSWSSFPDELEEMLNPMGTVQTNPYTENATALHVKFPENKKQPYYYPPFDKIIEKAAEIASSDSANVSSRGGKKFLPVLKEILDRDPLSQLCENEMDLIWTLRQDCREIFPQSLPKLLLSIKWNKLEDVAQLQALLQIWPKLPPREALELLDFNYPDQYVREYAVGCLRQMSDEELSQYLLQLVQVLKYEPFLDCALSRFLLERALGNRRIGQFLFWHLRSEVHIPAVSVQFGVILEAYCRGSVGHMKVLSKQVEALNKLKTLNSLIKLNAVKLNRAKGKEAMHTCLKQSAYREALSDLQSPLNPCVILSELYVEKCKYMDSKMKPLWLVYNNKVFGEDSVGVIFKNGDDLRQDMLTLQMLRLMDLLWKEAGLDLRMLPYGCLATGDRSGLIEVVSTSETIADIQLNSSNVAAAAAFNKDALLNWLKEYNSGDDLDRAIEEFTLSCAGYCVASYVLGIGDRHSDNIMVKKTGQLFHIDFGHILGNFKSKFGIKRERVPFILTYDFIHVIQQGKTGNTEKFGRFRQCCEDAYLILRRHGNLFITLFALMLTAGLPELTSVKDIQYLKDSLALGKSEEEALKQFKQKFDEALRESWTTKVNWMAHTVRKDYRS
PI3Kβ, sequence (P27986 whole entry partner): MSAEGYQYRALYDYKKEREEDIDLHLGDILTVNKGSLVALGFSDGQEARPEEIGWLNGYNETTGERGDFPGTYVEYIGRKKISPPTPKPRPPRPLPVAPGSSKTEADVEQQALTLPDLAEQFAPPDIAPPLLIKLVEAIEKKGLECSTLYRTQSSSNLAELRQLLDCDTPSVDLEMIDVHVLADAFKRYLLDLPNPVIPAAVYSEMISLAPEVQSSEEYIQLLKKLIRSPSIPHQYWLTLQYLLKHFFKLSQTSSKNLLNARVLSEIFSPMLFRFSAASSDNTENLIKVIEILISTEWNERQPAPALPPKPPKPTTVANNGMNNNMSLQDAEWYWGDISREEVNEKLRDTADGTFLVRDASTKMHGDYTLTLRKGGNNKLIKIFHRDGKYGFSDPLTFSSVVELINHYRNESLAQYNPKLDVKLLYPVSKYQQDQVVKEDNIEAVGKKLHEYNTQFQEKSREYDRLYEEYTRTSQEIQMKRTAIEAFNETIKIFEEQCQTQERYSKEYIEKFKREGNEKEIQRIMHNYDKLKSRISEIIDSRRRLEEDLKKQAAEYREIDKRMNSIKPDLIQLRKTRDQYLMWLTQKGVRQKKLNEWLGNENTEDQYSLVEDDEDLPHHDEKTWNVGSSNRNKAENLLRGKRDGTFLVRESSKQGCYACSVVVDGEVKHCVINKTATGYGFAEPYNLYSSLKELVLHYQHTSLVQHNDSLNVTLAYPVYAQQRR
Description: as §1

PI3Kδ, sequence (O00329 whole entry, the tested form may be a part, canonical isoform): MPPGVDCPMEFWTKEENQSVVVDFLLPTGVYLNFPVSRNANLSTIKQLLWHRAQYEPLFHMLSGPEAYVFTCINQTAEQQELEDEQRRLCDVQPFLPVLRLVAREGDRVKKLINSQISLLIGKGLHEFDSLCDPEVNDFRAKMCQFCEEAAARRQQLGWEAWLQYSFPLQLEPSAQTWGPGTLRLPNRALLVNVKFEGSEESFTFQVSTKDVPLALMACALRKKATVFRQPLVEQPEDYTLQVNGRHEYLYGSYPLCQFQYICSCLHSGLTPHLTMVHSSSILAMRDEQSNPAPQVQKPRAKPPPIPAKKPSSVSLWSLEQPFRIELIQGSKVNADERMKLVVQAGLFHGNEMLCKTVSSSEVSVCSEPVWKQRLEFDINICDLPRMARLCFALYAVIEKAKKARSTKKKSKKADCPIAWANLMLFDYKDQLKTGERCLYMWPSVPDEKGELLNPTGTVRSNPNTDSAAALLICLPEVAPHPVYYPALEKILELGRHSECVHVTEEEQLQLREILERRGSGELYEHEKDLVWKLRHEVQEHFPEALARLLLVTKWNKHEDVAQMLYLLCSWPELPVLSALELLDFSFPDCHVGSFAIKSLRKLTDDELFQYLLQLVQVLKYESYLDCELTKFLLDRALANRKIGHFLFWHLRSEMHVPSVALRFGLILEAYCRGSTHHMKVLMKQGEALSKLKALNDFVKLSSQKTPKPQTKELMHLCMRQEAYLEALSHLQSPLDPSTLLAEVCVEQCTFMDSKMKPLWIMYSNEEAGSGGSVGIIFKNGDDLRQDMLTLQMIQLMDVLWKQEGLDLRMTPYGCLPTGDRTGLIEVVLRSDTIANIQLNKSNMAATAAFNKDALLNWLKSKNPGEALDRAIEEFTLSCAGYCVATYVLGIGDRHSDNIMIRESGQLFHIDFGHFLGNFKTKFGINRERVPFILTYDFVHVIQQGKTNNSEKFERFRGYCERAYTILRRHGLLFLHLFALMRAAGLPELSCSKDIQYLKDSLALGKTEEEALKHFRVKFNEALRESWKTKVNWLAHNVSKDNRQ
PI3Kδ, sequence (P27986 whole entry partner, the tested form may be a part, canonical isoform): as the sequence (P27986 whole entry partner) above

Compound	IC50 (PI3Kδ) [nM]	IC50 (PI3Kγ) [nM]	IC50 (PI3Kβ) [nM]
C[C@H](Nc1ncnc(N)c1C#N)c1nc2cccc(Cl)c2c(=O)n1CCCN1CCN(C)CC1 [Compound 135, (S)-4-amino-6-((1-(5-chloro-3-(3-(4-methylpiperazin-1-yl)propyl)-4-oxo-3,4-dihydroquinazolin-2-yl)ethyl)amino)pyrimidine-5-carbonitrile]	6	≥ 10000	640
C[C@H](Nc1nc(N)nc(N)c1C#N)c1nc2cccc(Cl)c2c(=O)n1CCN1CCCC1 [Compound 137, (S)-2,4-diamino-6-((1-(5-chloro-4-oxo-3-(2-(pyrrolidin-1-yl)ethyl)-3,4-dihydroquinazolin-2-yl)ethyl)amino)pyrimidine-5-carbonitrile]	27	≥ 10000	760
C[C@H](Nc1ncnc(N)c1C#N)c1nc2cccc(Cl)c2c(=O)n1C[C@H](O)CO [Compound 143]	34	4240	374

The next lines start with the values.

IC50 (PI3Kδ) [nM]	IC50 (PI3Kγ) [nM]	IC50 (PI3Kβ) [nM]	Compound
4	≥ 10000	550	C[C@H](Nc1ncnc(N)c1C#N)c1nc2cccc(Cl)c2c(=O)n1CCCN1CCCCC1 [Compound 134, (S)-4-amino-6-((1-(5-chloro-4-oxo-3-(3-(piperidin-1-yl)propyl)-3,4-dihydroquinazolin-2-yl)ethyl)amino)pyrimidine-5-carbonitrile]
25	≥ 10000	990	C[C@H](Nc1ncnc(N)c1C#N)c1nc2cccc(Cl)c2c(=O)n1CCN1CCCC1 [Compound 136, (S)-4-amino-6-((1-(5-chloro-4-oxo-3-(2-(pyrrolidin-1-yl)ethyl)-3,4-dihydroquinazolin-2-yl)ethyl)amino)pyrimidine-5-carbonitrile]
6	590	410	C[C@H](Nc1nc(N)nc(N)c1C#N)c1nc2cccc(Cl)c2c(=O)n1CCc1ccn[nH]1 [Compound 140, (S)-4-((1-(3-(2-(1H-pyrazol-5-yl)ethyl)-5-chloro-4-oxo-3,4-dihydroquinazolin-2-yl)ethyl)amino)-2,6-diaminopyrimidine-5-carbonitrile]
87	≥ 10000	527	C[C@H](Nc1ncnc(N)c1C#N)c1nc2cccc(Cl)c2c(=O)n1C[C@@H](O)CO [Compound 142]
